From US20250325517A1, “ORAL DOSAGE FORMS OF ELRAGLUSIB” (Actuate Therapeutics, Inc., priority 2022, published 2025)
≈ marks a conversion by molar mass, not a printed value. Like-named read-outs stand apart in the source and are kept apart here.

Tests used:
Format in all cases: physicochemical
[1] = 50 mg/mL elraglusib solutions in 12 Vehicle Variants, HPLC with and without syringe filtration; conditions: no precipitation or haziness, no visible particulates
Procedure: An initial study prepared 50 mg/mL elraglusib solutions in 12 Vehicle Variants.
Each Vehicle Variant was made to 50 mg/mL with elraglusib and was tested (with and without syringe filtration) with respect to: (1) elraglusib main peak Area %, (2) related substance RRT 0.96 Area %, and (3) related Substance Area % RRT 0.97.

[2] = Quantitative solubility by HPLC in organic solvents and surfactants; conditions: for solubility: thermodynamic from solid, read-out: Solubility (n = 2) by HPLC
Text: The HPLC method 1 was used for solubility, stability monitoring at 438 nm, and drug loading measurements of the ASD is summarized in Table 2A-31 and the HPLC method 2 was used for stability monitoring at 210 nm, which is summarized in Table 2A-32.

[3] = Elra:PVAP and Elra:CAP ASD stability study (XRPD, mDSC, TGA, HPLC, ssNMR); conditions: crystallinity marker peak of API
Procedure: Both ASDs stored remained amorphous up to 12 weeks storage under the above-mentioned conditions (FIG. 21). The mDSC of the stability samples was carried out in a hermetically sealed pan without any pin hole, to determine the Tg in the presence of residual solvent or moisture (i.e., wet Tg).
An HPLC chromatogram was also obtained using HPLC monitored at 210 nm for a sample stored for 12 weeks at different conditions.
The first derivative was applied to the stability sample spectra (FIGS. 25-29). For pure amorphous samples, ssNMR produces gaussian curves that when applied to first derivative become a flat baseline. Crystalline material produces Laplacian curves by ssNMR which can be clearly observed after applying the first derivative.
Signal to noise ratio of API reference was 8.18. In all four stability samples, the signal to noise ratio for the first derivative peak at 87 ppm remained <2.
Solid-state NMR experiments were performed on a 2 channel Bruker NEO spectrometer (Bruker, Billerica, MA) operating at 100.52 MHz for 13C and 399.71 MHz for 1H. A Chemagnetics APEX probe, refitted with a 7 mm magic angle spinning module (Revolution NMR, Fort Collins, CO) was used to acquire the data. Each sample was packed into a 7 mm zirconia rotor with Kel-F spacers. The magic angle spinning (MAS) frequency that was used to acquire all of the data was 5 kHz. […]

[4] = Photo-Chamber Study 1 (10FV, 50FV, 50V7; visible and UV light)
Text: The photo-chamber and ambient light studies used a RP-HPLC method to monitor the following: • elraglusib concentration and % LC • elraglusib main peak Area % • elraglusib RelS1, elraglusib RelS2, and elraglusib Anhydride peak Area % values.
The three solutions were maintained in both 5-mL glass serum vials and UV-transparent plastic cuvettes (each with and without foil overwrap) and exposed to fractions (approximately 0, 25, 50, 75, and 100%) of ICH Q1B photostability conditions (1200 klux-hr in the visible region and 200 watt-h/m^2 in the UV region) using a calibrated photo-chamber.

[5] = Solubility of elraglusib in acetone, acetone:water and THF with and without polymers (24 h, visual and HPLC); conditions: for time to precipitation when agitated: ~4% w/w solids; for visual observation: stirred
Procedure: The solubility of elraglusib API with and without polymers of interest was evaluated in acetone. […] Samples were prepared according to Table 6-13. […] Additional studies were performed to determine if an increased water content would prevent formation of the solvate precipitate and more dilute solutions were tested for potential ASD processing.

[6] = as above

Cn1cc(C2=C(c3coc4ccc(F)cc34)C(=O)NC2=O)c2cc3c(cc21)OCO3 [elraglusib, 3-(5-fluorobenzofuran-3-yl)-4-(5-methyl-5H-[1,3]dioxolo[4,5-f]indol-7-yl)-1H-pyrrole-2,5-dione]
solubility in Vehicle Variants (visual) [1]: remained soluble at 50 mg/mL
solubility ([2]; DCM, no surfactant, organic solvent or mixture): 15.1 mg/mL (≈ 37.3 mM)
solubility ([2]; H2O with Kolliphor EL 10% w/v, aqueous with cosolvent or surfactant or cyclodextrin, H2O, Kolliphor EL 10% w/v): 0.12 mg/mL (≈ 0.297 mM)
solubility ([2]; H2O with Labrasol 10% w/v, aqueous with cosolvent or surfactant or cyclodextrin, H2O, Labrasol 10% w/v): 0.16 mg/mL (≈ 0.396 mM)
solubility ([2]; H2O with Tween 80 10% w/v, aqueous with cosolvent or surfactant or cyclodextrin, H2O, Tween 80 10% w/v): 0.24 mg/mL (≈ 0.594 mM)
solubility ([2]; THF (with stabilizer BHT), no surfactant, organic solvent or mixture): 25.3 mg/mL (≈ 62.5 mM)
solubility ([2]; THF with Kolliphor HS 15 10% w/v, organic solvent or mixture, THF, Kolliphor HS 15 10% w/v): 47.6 mg/mL (≈ 118 mM)
solubility ([2]; THF with Labrasol 10% w/v, organic solvent or mixture, THF, Labrasol 10% w/v): 52.3 mg/mL (≈ 129 mM)
solubility ([2]; THF with Poloxamer P188 10% w/v, organic solvent or mixture, THF, Poloxamer P188 10% w/v): 49.8 mg/mL (≈ 123 mM)
solubility ([2]; THF with TPGS 10% w/v, organic solvent or mixture, THF, TPGS 10% w/v): 46.8 mg/mL (≈ 116 mM)
solubility ([2]; THF with Tween 80 10% w/v, organic solvent or mixture, THF, Tween 80 10% w/v): 49.8 mg/mL (≈ 123 mM)
Solubility (n = 2) by HPLC ([2]; THF, Kolliphor EL 10% w/v): 48.0 mg/mL (≈ 119 mM)
Solubility (n = 2) by HPLC ([2]; THF, no surfactant): 52.7 mg/mL (≈ 130 mM)
solubility ([2]; THF:H2O (90:10) with Labrasol 10% w/v, organic solvent or mixture, THF:H2O (90:10), Labrasol 10% w/v): 54.8 mg/mL (≈ 136 mM)
Solubility (n = 2) by HPLC ([2]; THF:H2O (90:10), no surfactant): 61.2 mg/mL (≈ 151 mM)
solubility ([2]; acetone, no surfactant, organic solvent or mixture): 13 mg/mL (≈ 32.2 mM)
solubility ([2]; organic solvent or mixture, DCM:Acetone (1:1), no surfactant): 19.8 mg/mL (≈ 49 mM)
solubility ([2]; organic solvent or mixture, DCM:Acetone (5:1), no surfactant): 24.5 mg/mL (≈ 60.5 mM)
solubility ([2]; organic solvent or mixture, DCM:EtOH (1:1), no surfactant): 16.4 mg/mL (≈ 40.6 mM)
solubility ([2]; organic solvent or mixture, DCM:MeOH (8:2), no surfactant): 11.8 mg/mL (≈ 29.1 mM)
ssNMR Signal to Noise (87-96 ppm), first derivative spectra [3]: 8.18
% LC loss rate relative to main peak Area % loss rate ([4]; photo-exposure): approximately 6 times
photo-conversion rate, visible light compared with UV light ([4]; vials and cuvettes): approximately 5 times
% LC photo-conversion rate in vials (no foil) as % of rate in cuvettes (no foil) ([4]; visible light): approximately 60%
time remaining soluble ([5]; 1.5-2.0% w/w in 95:5 acetone:water): over 24 hours
time to precipitation when agitated ([5]; 90:10 acetone:water): 3.5 h
time to precipitation when agitated ([5]; 95:5 acetone:water): 2 h
visual observation ([5]; Table 6-14 Sample 1: 4.02% w/w in Acetone, 30 min): Translucent
visual observation ([5]; Table 6-14 Sample 1: 4.02% w/w in Acetone, 1 hour): Translucent
visual observation ([5]; Table 6-14 Sample 1: 4.02% w/w in Acetone, 2 hours): Precipitation
visual observation ([5]; Table 6-14 Sample 1: 4.02% w/w in Acetone, 4 hours): No change
visual observation ([5]; Table 6-14 Sample 1: 4.02% w/w in Acetone, 8 hours): No change
visual observation ([5]; Table 6-14 Sample 1: 4.02% w/w in Acetone, 24 hours): No change
visual observation ([5]; Table 6-14 Sample 2: 4.02% w/w in THF, 30 min): Translucent
visual observation ([5]; Table 6-14 Sample 2: 4.02% w/w in THF, 1 hour): Translucent
visual observation ([5]; Table 6-14 Sample 2: 4.02% w/w in THF, 2 hours): Translucent
visual observation ([5]; Table 6-14 Sample 2: 4.02% w/w in THF, 4 hours): Translucent
visual observation ([5]; Table 6-14 Sample 2: 4.02% w/w in THF, 8 hours): Translucent
visual observation ([5]; Table 6-14 Sample 2: 4.02% w/w in THF, 24 hours): Translucent
visual observation ([5]; Table 6-14 Sample 3: 4.02% w/w in 95:5 Acetone:Water, 30 min): Translucent
visual observation ([5]; Table 6-14 Sample 3: 4.02% w/w in 95:5 Acetone:Water, 1 hour): Translucent
visual observation ([5]; Table 6-14 Sample 3: 4.02% w/w in 95:5 Acetone:Water, 2 hours): Precipitation
visual observation ([5]; Table 6-14 Sample 3: 4.02% w/w in 95:5 Acetone:Water, 4 hours): No change
visual observation ([5]; Table 6-14 Sample 3: 4.02% w/w in 95:5 Acetone:Water, 8 hours): No change
visual observation ([5]; Table 6-14 Sample 3: 4.02% w/w in 95:5 Acetone:Water, 24 hours): No change
visual observation ([5]; Table 6-14 Sample 4: 3.96% w/w API in Acetone with HPMCAS-MG (7.96% w/w total solids), 30 min): Hazy
visual observation ([5]; Table 6-14 Sample 4: 3.96% w/w API in Acetone with HPMCAS-MG (7.96% w/w total solids), 1 hour): Hazy
visual observation ([5]; Table 6-14 Sample 4: 3.96% w/w API in Acetone with HPMCAS-MG (7.96% w/w total solids), 2 hours): Hazy but no
visual observation ([5]; Table 6-14 Sample 4: 3.96% w/w API in Acetone with HPMCAS-MG (7.96% w/w total solids), 4 hours): Precipitation
visual observation ([5]; Table 6-14 Sample 4: 3.96% w/w API in Acetone with HPMCAS-MG (7.96% w/w total solids), 8 hours): No change
visual observation ([5]; Table 6-14 Sample 4: 3.96% w/w API in Acetone with HPMCAS-MG (7.96% w/w total solids), 24 hours): No change
visual observation ([5]; Table 6-17 Sample 1: 3.99% w/w in 90:10 acetone:water, 30 min): Translucent
visual observation ([5]; Table 6-17 Sample 1: 3.99% w/w in 90:10 acetone:water, 1 hour): Translucent
visual observation ([5]; Table 6-17 Sample 1: 3.99% w/w in 90:10 acetone:water, 2 hours): Translucent
visual observation ([5]; Table 6-17 Sample 1: 3.99% w/w in 90:10 acetone:water, 3.5 hours): Precipitation
visual observation ([5]; Table 6-17 Sample 1: 3.99% w/w in 90:10 acetone:water, 4 hours): No change
visual observation ([5]; Table 6-17 Sample 1: 3.99% w/w in 90:10 acetone:water, 21.5 hours): No change
visual observation ([5]; Table 6-17 Sample 2: 3.99% w/w in 95:5 acetone:water, 30 min): Translucent
visual observation ([5]; Table 6-17 Sample 2: 3.99% w/w in 95:5 acetone:water, 1 hour): Translucent
visual observation ([5]; Table 6-17 Sample 2: 3.99% w/w in 95:5 acetone:water, 2 hours): Precipitation
visual observation ([5]; Table 6-17 Sample 2: 3.99% w/w in 95:5 acetone:water, 3.5 hours): No change
visual observation ([5]; Table 6-17 Sample 2: 3.99% w/w in 95:5 acetone:water, 4 hours): No change
visual observation ([5]; Table 6-17 Sample 2: 3.99% w/w in 95:5 acetone:water, 21.5 hours): No change
visual observation ([5]; Table 6-17 Sample 3: 2.04% w/w in 95:5 acetone:water, 30 min): Translucent
visual observation ([5]; Table 6-17 Sample 3: 2.04% w/w in 95:5 acetone:water, 1 hour): No change
visual observation ([5]; Table 6-17 Sample 3: 2.04% w/w in 95:5 acetone:water, 2 hours): No change
visual observation ([5]; Table 6-17 Sample 3: 2.04% w/w in 95:5 acetone:water, 3.5 hours): No change
visual observation ([5]; Table 6-17 Sample 3: 2.04% w/w in 95:5 acetone:water, 4 hours): No change
visual observation ([5]; Table 6-17 Sample 3: 2.04% w/w in 95:5 acetone:water, 21.5 hours): No change
visual observation ([5]; Table 6-17 Sample 4: 1.84% w/w in 95:5 acetone:water, 30 min): Translucent
visual observation ([5]; Table 6-17 Sample 4: 1.84% w/w in 95:5 acetone:water, 1 hour): No change
visual observation ([5]; Table 6-17 Sample 4: 1.84% w/w in 95:5 acetone:water, 2 hours): No change
visual observation ([5]; Table 6-17 Sample 4: 1.84% w/w in 95:5 acetone:water, 3.5 hours): No change
visual observation ([5]; Table 6-17 Sample 4: 1.84% w/w in 95:5 acetone:water, 4 hours): No change
visual observation ([5]; Table 6-17 Sample 4: 1.84% w/w in 95:5 acetone:water, 21.5 hours): No change
visual observation ([5]; Table 6-17 Sample 5: 1.54% w/w in 95:5 acetone:water, 30 min): Translucent
visual observation ([5]; Table 6-17 Sample 5: 1.54% w/w in 95:5 acetone:water, 1 hour): No change
visual observation ([5]; Table 6-17 Sample 5: 1.54% w/w in 95:5 acetone:water, 2 hours): No change
visual observation ([5]; Table 6-17 Sample 5: 1.54% w/w in 95:5 acetone:water, 3.5 hours): No change
visual observation ([5]; Table 6-17 Sample 5: 1.54% w/w in 95:5 acetone:water, 4 hours): No change
visual observation ([5]; Table 6-17 Sample 5: 1.54% w/w in 95:5 acetone:water, 21.5 hours): No change
solubility in acetone ([5]; crystallizes at room temperature at static conditions): 4 % w/w
solubility at 24 h ([5]; organic solvent or mixture, thermodynamic from solid, acetone, 24 hours, read-out: measured solubility by HPLC): 13.1 mg/mL (≈ 32.3 mM)
measured concentration by HPLC ([6]; THF solution, 24 hours (theoretical 37 mg/mL)): 34.68 mg/mL
time remaining soluble ([6]; tetrahydrofuran (THF)): over 24 hours
